Data as given in patent publication US20220289765A1, “CRYSTAL OF CARCINOGENIC FUSED KINASE INHIBITOR AND APPLICATIONS THEREOF” (Simcere Pharmaceutical Co., Ltd., priority 2019, published 2022).
Where two headings read alike, the source gives them in different places.

Assays:
[1] = test system: Ba/F3 LMNA-NTRK1-WT stable transformant cell line; assay: Cell proliferation inhibition (CellTiter-Glo, 72 h); format: cell-based; details: Mus musculus, BaF3, read-out: Half Inhibitory Concentrations of Cells IC50, Ba/F3 LMNA-NTRK1-WT
Description: Adenosine Tri-Phosphate (ATP) is an energy carrier shared by various life activities in nature and is the smallest unit of energy storage and transfer. In CellTiter-Glo™ Live Cell Detection Kit, luciferase was used as a detection substance, and it required the involvement of ATP during luminescence. CellTiter-Glo™ reagent was added to the cell culture medium to measure a luminescence value, and the light signal was proportional to the amount of ATP in the system, and ATP was positively correlated to the number of viable cells. Therefore, by detecting the ATP content using the CellTiter-Glo Kit, cell proliferation can be detected. In this test, the cell line was Ba/F3 LMNA-NTRK1-WT stable transformant cell line, and the number of cells was 5000/well.
• a) Cells in the logarithmic growth phase were harvested and counted by using a […]. Cell viability was detected by trypan blue exclusion assay to ensure that the cell viability was above 90%. • b) The cell concentration was adjusted, and 90 μL cell suspension was added to a 96-well plate, respectively. • c) Cells in the 96-well plate were incubated overnight at 37° C., 5% CO2 and 95% humidity. […]
The data were analyzed using GraphPad Prism 5.0 software, and were fitted to obtain a dose-effect curve using a non-linear S-curve regression, and the IC50 values were calculated therefrom.

[2] = test system: Ba/F3 SLC34A2-ROS1-G2032R; assay: as above; format: cell-based; details: Mus musculus, BaF3, read-out: Half Inhibitory Concentrations of Cells IC50, Ba/F3 SLC34A2-ROS1-G2032R
[3] = Pharmacokinetic test in mice; format: in vivo; details: male CD-1 mice; for AUC(0-t): read-out: Area under Curve AUC0-last
Description: The drug concentrations of the compounds in plasma at different time points were determined by LC/MS/MS method after single intravenous (IV) and intragastric (PO) administration of the compounds to 7-9 week old male CD-1 mice as the test animals. The pharmacokinetic behaviors of the compounds of the present invention in mice were studied and pharmacokinetic properties thereof were evaluated.
The compounds were prepared into clear solutions using 5% DMSO+10% solutol+85% water as a solvent for administration in IV (intravenous injection) and PO (gavage) groups. The administration dosage of each compound was 3 mg/kg for the IV group and […] for the PO group.

[4] = Cassette pharmacokinetic test in mice (plasma, brain, CSF); format: in vivo, male CD-1 mice; details: cassette; for AUC(0-inf): read-out: Area under Curve AUC0-inf
Description: The pharmacokinetic behaviors of the compounds of the present invention in mice were studied and the pharmacokinetic properties thereof were evaluated.

BaF3 ETV6-NTRK3-G623R = assay: Cell proliferation inhibition (CellTiter-Glo, 72 h); format: cell-based; details: Mus musculus, read-out: Half Inhibitory Concentrations of Cells IC50, BaF3 ETV6-NTRK3-G623R
Ba/F3 LMNA-NTRK1-F589L = assay: as above; format: cell-based; details: Mus musculus, BaF3, read-out: Half Inhibitory Concentrations of Cells IC50, Ba/F3 LMNA-NTRK1-F589L
[5] = test system: human lung cancer LU-01-0414 subcutaneous xenograft tumor; assay: Efficacy test in mice, LU-01-0414 subcutaneous xenograft; format: in vivo, BALB/c mouse; details: PO, 14 days, LU-01-0414 xenograft
Description: The in vivo efficacy of test drugs such as the compound of Formula (I) on human lung cancer LU-01-0414 subcutaneous xenograft tumor in a BALB/c mouse model was evaluated.
The compounds were prepared into clear solutions using 5% DMSO+10% solutol+85% water as a solvent for administration in PO (gavage) groups.
The tumor diameters were measured twice a week using a vernier caliper. The formula for calculating the tumor volume is: V=0.5×a×b^2, wherein a and b represent the long diameter and the short diameter of the tumor, respectively. The antitumor efficacy of the compounds was evaluated with TGI (%), which reflects the inhibition rate of tumor growth.
Statistical analysis was performed using SPSS software based on relative tumor volume and tumor weight at the end of the experiment. Comparisons among multiple groups were analyzed by one-way ANOVA. If the variances were homogeneous (no significant difference in F-values), the analysis was performed by the Tukey's method, and if the variances were not homogeneous (significant difference in F-values), the test was performed by the Games-Howell method. P<0.05 was considered as a significant difference.

O=C1NC2(CC2)COc2ncc(F)cc2[C@H]2CCON2c2ccn3ncc1c3n2 [Compound of Formula (I)]
IC50 [1]: 1.26 nM | IC50 [2]: 16.1 nM | Apparent Clearance Cl ([3]; IV, 3 mg/kg): 7.2 mL/min/kg | Vd ([3]; mouse, plasma, IV, 3 mg/kg, read-out: Apparent Distribution Volume Vd): 0.49 L/kg | AUC(0-t) ([3]; mouse, plasma, IV, 3 mg/kg): 17.5 µM·h | half-life ([3]; mouse, plasma, IV, 3 mg/kg, read-out: Half-life T1/2 (converted)): 45 min | bioavailability ([3]; mouse, plasma, PO (10 mL/kg [sic]) vs IV 3 mg/kg, read-out: Bioavailability F %): 51% | AUC(0-t) ([3]; mouse, plasma, PO, dosage given as 10 mL/kg): 29.8 µM·h | Cmax ([3]; mouse, plasma, PO, dosage given as 10 mL/kg, read-out: Peak Concentration Cmax): 9.14 µM | Tmax ([3]; mouse, plasma, PO, dosage given as 10 mL/kg, read-out: Time to Peak Tmax): 30 min | Apparent Clearance Cl ([4]; IV @ 1 mpk, male CD-1 mice): 6.3 mL/min/kg | Drug Concentration in Cerebrospinal Fluid at 0.5 h ([4]; PO @ 3 mpk, CSF, 0.5 h): 63 nmol/kg | Drug Concentration in Cerebrospinal Fluid at 2 h ([4]; PO @ 3 mpk, CSF, 2 h): 21 nmol/kg | Drug Concentration in Brain at 0.5 h ([4]; PO @ 3 mpk, brain, 0.5 h): 663 nmol/kg | Drug Concentration in Brain at 2 h ([4]; PO @ 3 mpk, brain, 2 h): 343 nmol/kg | Vd ([4]; mouse, plasma, 1 mg/kg, IV @ 1 mpk, male CD-1 mice, read-out: Apparent Distribution Volume Vd): 0.57 L/kg | AUC(0-inf) ([4]; mouse, plasma, 1 mg/kg, IV @ 1 mpk, male CD-1 mice): 6.69 µM·h | half-life ([4]; mouse, plasma, 1 mg/kg, IV @ 1 mpk, male CD-1 mice, read-out: Half-life T1/2 (converted)): 52.8 min | C0 ([4]; mouse, plasma, 1 mg/kg, IV @ 1 mpk, male CD-1 mice, read-out: Initial Concentration C0): 3.71 µM | bioavailability ([4]; mouse, plasma, 3 mg/kg, PO @ 3 mpk vs IV @ 1 mpk, male CD-1 mice, read-out: Bioavailability F %): 76% | AUC(0-inf) ([4]; mouse, plasma, 3 mg/kg, PO @ 3 mpk, male CD-1 mice): 19.8 µM·h | Cmax ([4]; mouse, plasma, 3 mg/kg, PO @ 3 mpk, male CD-1 mice, read-out: Peak Concentration Cmax): 4.74 µM | Tmax ([4]; mouse, plasma, 3 mg/kg, PO @ 3 mpk, male CD-1 mice, read-out: Time to Peak Tmax): 15 min | IC50 (BaF3 ETV6-NTRK3-G623R): 3.4 nM | IC50 (Ba/F3 LMNA-NTRK1-F589L): 0.78 nM | T/C ([5]; 3 mg/kg BID): 9.57% | TGI ([5]; 3 mg/kg BID): 118.02% | T/C ([5]; 15 mg/kg BID): 3.07% | TGI ([5]; 15 mg/kg BID): 126.88% | T/C ([5]; 30 mg/kg BID): 1.87% | TGI ([5]; 30 mg/kg BID): 128.36%
